# In ChEMBL document CHEMBL1129789, “Dopamine D3 and D4 receptor antagonists: synthesis and structure--activity relationships of (S)-(+)-N-(1-Benzyl-3-pyrrolidinyl)-5-chloro-4- [(cyclopropylcarbonyl) amino]-2-methoxybenzamide (YM-43611) and related compounds” (J Med Chem, 1996):
# How the values were obtained:
# Adrenergic receptor beta = Adrenergic receptor beta (Rattus norvegicus, UniProt P18090+P10608+P26255); test: Compound was tested for the Binding affinity against rat cortical Beta adrenergic receptor by Radio ligand [3H]dihydroalprenolol binding assay.; type: protein assay
# [1] = target: T1, 5-hydroxytryptamine receptor 1A (Rattus norvegicus, UniProt P19327); test: Compound was tested for the Binding affinity against rat hippocampal 5-hydroxytryptamine 1A receptor by Radio ligand [3H]8-OH-DPAT binding assay.; type: tissue-based, Hippocampus
# T1 sequence (P19327 whole entry): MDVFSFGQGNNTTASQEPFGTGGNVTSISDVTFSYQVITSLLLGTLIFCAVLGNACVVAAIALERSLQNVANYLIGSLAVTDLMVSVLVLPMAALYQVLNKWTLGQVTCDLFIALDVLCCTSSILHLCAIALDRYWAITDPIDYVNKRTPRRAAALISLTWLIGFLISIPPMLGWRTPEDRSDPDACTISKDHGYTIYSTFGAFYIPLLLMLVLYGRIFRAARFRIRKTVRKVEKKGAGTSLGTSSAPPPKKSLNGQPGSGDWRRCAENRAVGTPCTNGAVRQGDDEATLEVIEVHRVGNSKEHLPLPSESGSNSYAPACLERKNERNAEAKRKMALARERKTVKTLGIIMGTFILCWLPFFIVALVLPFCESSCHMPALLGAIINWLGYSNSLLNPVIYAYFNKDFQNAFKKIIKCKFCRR
# [2] = target: T2, 5-hydroxytryptamine receptor 3A (Mus musculus, UniProt P23979)
# T2 sequence (P23979 whole entry): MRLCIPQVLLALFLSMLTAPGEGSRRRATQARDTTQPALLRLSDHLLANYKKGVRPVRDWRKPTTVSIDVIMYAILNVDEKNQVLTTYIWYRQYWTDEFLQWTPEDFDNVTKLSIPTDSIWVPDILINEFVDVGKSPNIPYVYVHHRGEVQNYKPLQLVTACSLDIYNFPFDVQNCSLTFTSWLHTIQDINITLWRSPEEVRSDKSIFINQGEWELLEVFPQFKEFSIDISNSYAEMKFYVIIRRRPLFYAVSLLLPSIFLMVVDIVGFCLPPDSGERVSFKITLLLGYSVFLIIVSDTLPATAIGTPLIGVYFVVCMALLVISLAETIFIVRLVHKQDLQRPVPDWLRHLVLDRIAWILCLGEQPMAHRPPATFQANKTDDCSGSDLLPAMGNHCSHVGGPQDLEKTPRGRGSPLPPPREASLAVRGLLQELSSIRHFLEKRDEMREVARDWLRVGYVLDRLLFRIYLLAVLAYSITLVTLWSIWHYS
# [3] = target: T3, Adrenergic receptor alpha-1 (Rattus norvegicus, UniProt P15823+P23944+P43140); test: Compound was tested for the binding affinity against rat cortical Alpha-1 adrenergic receptor by radioligand [3H]prazosin binding assay.; type: protein assay
# T3 sequence (P15823 whole entry): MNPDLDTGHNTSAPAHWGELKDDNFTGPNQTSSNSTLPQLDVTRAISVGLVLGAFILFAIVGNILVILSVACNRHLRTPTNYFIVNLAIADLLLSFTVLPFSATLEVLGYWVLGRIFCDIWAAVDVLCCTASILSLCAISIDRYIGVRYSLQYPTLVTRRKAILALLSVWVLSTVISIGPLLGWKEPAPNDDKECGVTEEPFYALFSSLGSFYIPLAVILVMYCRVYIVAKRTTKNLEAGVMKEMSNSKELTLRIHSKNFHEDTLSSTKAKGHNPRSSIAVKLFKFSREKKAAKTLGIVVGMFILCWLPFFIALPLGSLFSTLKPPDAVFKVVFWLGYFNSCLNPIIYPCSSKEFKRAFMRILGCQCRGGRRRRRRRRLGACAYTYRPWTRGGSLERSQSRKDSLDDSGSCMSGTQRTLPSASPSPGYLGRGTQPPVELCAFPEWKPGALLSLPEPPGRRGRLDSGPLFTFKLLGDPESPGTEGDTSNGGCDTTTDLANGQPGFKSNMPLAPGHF
# T3 sequence (P23944 whole entry): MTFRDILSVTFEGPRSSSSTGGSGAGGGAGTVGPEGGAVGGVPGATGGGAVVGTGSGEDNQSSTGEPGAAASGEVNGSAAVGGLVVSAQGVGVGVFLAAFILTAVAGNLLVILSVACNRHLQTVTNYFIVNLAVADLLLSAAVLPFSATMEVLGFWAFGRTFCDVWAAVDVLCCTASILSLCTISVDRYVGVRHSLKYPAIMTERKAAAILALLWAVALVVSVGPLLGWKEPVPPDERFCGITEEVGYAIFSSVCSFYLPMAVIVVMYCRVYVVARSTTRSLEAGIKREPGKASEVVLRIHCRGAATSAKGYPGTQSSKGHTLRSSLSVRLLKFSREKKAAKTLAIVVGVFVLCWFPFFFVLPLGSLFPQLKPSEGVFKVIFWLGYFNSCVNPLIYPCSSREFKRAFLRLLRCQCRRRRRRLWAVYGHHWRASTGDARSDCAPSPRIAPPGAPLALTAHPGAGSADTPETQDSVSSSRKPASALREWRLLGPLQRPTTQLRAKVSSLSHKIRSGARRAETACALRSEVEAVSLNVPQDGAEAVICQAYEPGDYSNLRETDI
# T3 sequence (P43140 whole entry): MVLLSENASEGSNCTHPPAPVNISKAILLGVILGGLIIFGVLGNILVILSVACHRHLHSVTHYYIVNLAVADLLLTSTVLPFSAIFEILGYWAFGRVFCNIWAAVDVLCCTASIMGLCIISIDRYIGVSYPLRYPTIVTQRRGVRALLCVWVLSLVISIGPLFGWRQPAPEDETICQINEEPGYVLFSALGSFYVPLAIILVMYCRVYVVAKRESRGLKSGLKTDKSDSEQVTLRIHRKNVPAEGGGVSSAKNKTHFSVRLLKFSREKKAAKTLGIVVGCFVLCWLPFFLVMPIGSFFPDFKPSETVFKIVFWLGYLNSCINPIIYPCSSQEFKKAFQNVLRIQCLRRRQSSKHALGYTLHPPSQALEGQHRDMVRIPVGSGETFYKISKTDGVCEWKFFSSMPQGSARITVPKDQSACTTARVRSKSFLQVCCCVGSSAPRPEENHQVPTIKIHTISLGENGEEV
smiles,measurement,setting,value
COc1cc(NC(=O)C2CC2)c(Cl)cc1C(=O)N[C@H]1CCN(Cc2ccccc2)C1,Ki,Adrenergic receptor beta,> 10 µM
same,Ki,[1],> 10 µM
same,Ki,[2],4 µM
same,Ki,[3],5.3 µM
